Results as given in patent US20060069132A1, “Azolecarboxamide herbicides” (priority 2004, published 2006).
Like-named read-outs stand apart in the source and are kept apart here.

Columns and labels:
barnyardgrass [1] = assay: Test B pre-/postemergence herbicide test; type: in vivo, Echinochloa crus-galli; conditions: for pest or weed control at 500 g/ha: 500 g ai/ha
In short: (§1)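 Flooded paddy rice and barnyardgrass were treated at the 2-leaf stage; upland plantings received compound either on sown seed or on 1- to 4-leaf seedlings. All were kept 13–15 days in a greenhouse and scored visually, 0–100, relative to untreated plants.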

rice = assay: Test B flooded paddy test; type: in vivo, Oryza sativa; conditions: Oryza sativa, 336 h, 1000 g ai/ha, scale 0 to 100 (0 no effect, 100 complete control), read-out: Rice plant response rating
In short: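 Plants grow to 1- to 4-leaf stage (2–18 cm) for postemergence spraying, or to 2-leaf stage for the paddy test. Formulated compound is applied. Greenhouse holding lasts 13–15 days. Response is scored visually relative to controls, 0 no effect to 100 complete control; a dash means no result.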

corn = assay: Test B pre-/postemergence herbicide test; type: in vivo, Zea mays
In short: (§2)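 Pre: seeds sown, then sprayed. Post: 1–4-leaf plants (2–18 cm) sprayed at the same time. Paddy: flooded, treated at 2-leaf stage. Formulation: non-phytotoxic solvent with surfactant. Greenhouse 13–15 days; visual 0–100 score relative to controls.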

velvetleaf = assay: Test B pre-/postemergence herbicide test; type: in vivo, Abutilon theophrasti
In short: as §2

cocklebur = assay: Test B pre-/postemergence herbicide test; type: in vivo, Xanthium strumarium; conditions: for pest or weed control at 500 g/ha: 500 g ai/ha
In short: as §1

ducksalad = assay: Test B flooded paddy test; type: in vivo, Heteranthera limosa; conditions: Heteranthera limosa, 336 h, 1000 g ai/ha, scale 0 to 100 (0 no effect, 100 complete control), read-out: Ducksalad plant response rating
In short: (§3)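 After treating 2-leaf paddy plants or 2–18 cm postemergence plants (1 to 4 leaves) with formulated chemical, researchers kept them in a greenhouse for 13–15 days. Effects were judged visually versus controls: 0 indicates none, 100 total control.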

large crabgrass = assay: Test B pre-/postemergence herbicide test; type: in vivo, Digitaria sanguinalis; conditions: for pest or weed control at 500 g/ha: 500 g ai/ha
In short: as §2

morningglory = assay: Test B pre-/postemergence herbicide test; type: in vivo, Ipomoea coccinea; conditions: for pest or weed control at 500 g/ha: 500 g ai/ha
In short: as §1

wheat = assay: Test B postemergence herbicide test; type: in vivo, Triticum aestivum; conditions: Triticum aestivum, post-emergence, 336 h, read-out: Wheat plant response rating
In short: as §3

blackgrass = assay: Test B postemergence herbicide test; type: in vivo, Alopecurus myosuroides; conditions: Alopecurus myosuroides, post-emergence, 336 h, read-out: Blackgrass plant response rating
In short: as §3

barnyardgrass [2] = assay: Test B flooded paddy test; type: in vivo, Echinochloa crus-galli; conditions: Echinochloa crus-galli, 336 h, 1000 g ai/ha, scale 0 to 100 (0 no effect, 100 complete control), read-out: Barnyardgrass plant response rating
In short: as §3

[3] = tested on: small flower umbrella sedge; assay: Test B flooded paddy test; type: in vivo, Cyperus difformis; conditions: Cyperus difformis, 336 h, 1000 g ai/ha, scale 0 to 100 (0 no effect, 100 complete control), read-out: Sedge, Umbrella plant response rating
In short: as §3

Surinam grass = assay: Test B pre-/postemergence herbicide test; type: in vivo, Urochloa decumbens; conditions: for pest or weed control at 500 g/ha: 500 g ai/ha
In short: as §2

pigweed = assay: Test B pre-/postemergence herbicide test; type: in vivo, Amaranthus retroflexus; conditions: for pest or weed control at 500 g/ha: 500 g ai/ha
In short: as §2

wild oat = assay: Test B postemergence herbicide test; type: in vivo, Avena fatua; conditions: Avena fatua, post-emergence, 336 h, read-out: Oat, Wild plant response rating
In short: as §3

giant foxtail = assay: Test B pre-/postemergence herbicide test; type: in vivo, Setaria faberi; conditions: for pest or weed control at 500 g/ha: 500 g ai/ha
In short: as §2

[4] = 125 g ai/ha, 0 is no effect, 100 is complete control, preemergence
[5] = 125 g ai/ha, visual rating, scale 0 (no effect) to 100 (complete control)
[6] = postemergence, 500 g ai/ha, scale 0 to 100, 0 is no effect, 100 is complete control

For `CCn1nc2c(c1C(=O)Nc1cc(C(=O)N(C)C)ccc1F)CCC2(C)C` [Compound 352, N-[5-[(dimethylamino)carbonyl]-2-fluorophenyl]-2-ethyl-2,4,5,6-tetrahydro-6,6-dimethyl-3-cyclopentapyrazolecarboxamide], the “Plant response rating (0 to 100 scale), Barnyardgrass” value (barnyardgrass [1]; [4]) was 70, the pest or weed control at 125 g/ha (barnyardgrass [1]; Echinochloa crus-galli, post-emergence, 125 g ai/ha, visual rating, scale 0 (no effect) to 100 (complete control), read-out: Barnyardgrass plant response rating) was 0% and the pest or weed control at 500 g/ha (barnyardgrass [1]; Echinochloa crus-galli, post-emergence, postemergence, scale 0 to 100, 0 is no effect, 100 is complete control, read-out: Barnyardgrass plant response rating) was 10%. The pest or weed control at 500 g/ha (barnyardgrass [1]; Echinochloa crus-galli, pre-emergence, visual rating, 0 = no effect, 100 = complete control, read-out: Plant response rating, Barnyardgrass) was 90%, the plant injury at 1000 g/ha (rice) was 70% and the “Plant response rating (0 to 100 scale), Corn” value (corn; [4]) was 60. The plant injury at 125 g/ha (corn; Zea mays, post-emergence, 125 g ai/ha, visual rating, scale 0 (no effect) to 100 (complete control), read-out: Corn plant response rating) was 0%, the plant injury at 500 g/ha (corn; Zea mays, post-emergence, postemergence, 500 g ai/ha, scale 0 to 100, 0 is no effect, 100 is complete control, read-out: Corn plant response rating) was 10% and the Corn plant response rating (crop injury, 0 = no effect, 100 = complete kill) at 500 g/ha (corn; Zea mays, pre-emergence, 500 g ai/ha, visual rating, 0 = no effect, 100 = complete control) was 80%. The “Plant response rating (0 to 100 scale), Velvetleaf” value (velvetleaf; [4]) was 30, the pest or weed control at 125 g/ha (velvetleaf; Abutilon theophrasti, post-emergence, 336 h, 125 g ai/ha, visual rating, scale 0 (no effect) to 100 (complete control), read-out: Velvetleaf plant response rating) was 10% and the pest or weed control at 500 g/ha (velvetleaf; Abutilon theophrasti, post-emergence, 336 h, postemergence, 500 g ai/ha, scale 0 to 100, 0 is no effect, 100 is complete control, read-out: Velvetleaf plant response rating) was 60%. The “Plant response rating (0 to 100 scale), Cocklebur” value (cocklebur; [4]) was 0, the pest or weed control at 125 g/ha (cocklebur; Xanthium strumarium, post-emergence, 125 g ai/ha, visual rating, scale 0 (no effect) to 100 (complete control), read-out: Cocklebur plant response rating) was 0% and the pest or weed control at 500 g/ha (cocklebur; Xanthium strumarium, post-emergence, postemergence, scale 0 to 100, 0 is no effect, 100 is complete control, read-out: Cocklebur plant response rating) was 10%. The pest or weed control at 500 g/ha (cocklebur; Xanthium strumarium, pre-emergence, visual rating, 0 = no effect, 100 = complete control, read-out: Plant response rating, Cocklebur) was 0%, the pest or weed control at 1000 g/ha (ducksalad) was 90% and the “Plant response rating (0 to 100 scale), Crabgrass, Large” value (large crabgrass; [4]) was 90. For the same molecule, the pest or weed control at 125 g/ha (large crabgrass; Digitaria sanguinalis, post-emergence, 125 g ai/ha, visual rating, scale 0 (no effect) to 100 (complete control), read-out: Crabgrass, Large plant response rating) was 20%, the pest or weed control at 500 g/ha (large crabgrass; Digitaria sanguinalis, post-emergence, postemergence, scale 0 to 100, 0 is no effect, 100 is complete control, read-out: Crabgrass, Large plant response rating) was 20% and the pest or weed control at 500 g/ha (large crabgrass; Digitaria sanguinalis, pre-emergence, visual rating, 0 = no effect, 100 = complete control, read-out: Plant response rating, Crabgrass, Large) was 100%. The “Plant response rating (0 to 100 scale), Morningglory” value (morningglory; [4]) was 0, the pest or weed control at 125 g/ha (morningglory; Ipomoea, post-emergence, 336 h, 125 g ai/ha, visual rating, scale 0 (no effect) to 100 (complete control), read-out: Morningglory plant response rating) was 10% and the pest or weed control at 500 g/ha (morningglory; Ipomoea, post-emergence, 336 h, postemergence, scale 0 to 100, 0 is no effect, 100 is complete control, read-out: Morningglory plant response rating) was 60%. For the same molecule, the pest or weed control at 500 g/ha (morningglory; Ipomoea, pre-emergence, 336 h, visual rating, 0 = no effect, 100 = complete control, read-out: Plant response rating, Morningglory) was 0%, the plant injury at 125 g/ha (wheat; [5]) was 10% and the plant injury at 500 g/ha (wheat; [6]) was 20%. The pest or weed control at 125 g/ha (blackgrass; [5]) was 10%, the pest or weed control at 500 g/ha (blackgrass; [6]) was 30% and the pest or weed control at 1000 g/ha (barnyardgrass [2]) was 90%. The pest or weed control at 1000 g/ha [3] was 80%, the “Plant response rating (0 to 100 scale), Surinam Grass” value (Surinam grass; [4]) was 90 and the pest or weed control at 125 g/ha (Surinam grass; Urochloa decumbens, post-emergence, 125 g ai/ha, visual rating, scale 0 (no effect) to 100 (complete control), read-out: Surinam Grass plant response rating) was 10%. For the same molecule, the pest or weed control at 500 g/ha (Surinam grass; Urochloa decumbens, post-emergence, postemergence, scale 0 to 100, 0 is no effect, 100 is complete control, read-out: Surinam Grass plant response rating) was 40%, the pest or weed control at 500 g/ha (Surinam grass; Urochloa decumbens, pre-emergence, visual rating, 0 = no effect, 100 = complete control, read-out: Plant response rating, Surinam Grass) was 100% and the “Plant response rating (0 to 100 scale), Pigweed” value (pigweed; [4]) was 50. The pest or weed control at 125 g/ha (pigweed; Amaranthus retroflexus, post-emergence, 336 h, 125 g ai/ha, visual rating, scale 0 (no effect) to 100 (complete control), read-out: Pigweed plant response rating) was 10%, the pest or weed control at 500 g/ha (pigweed; Amaranthus retroflexus, post-emergence, 336 h, postemergence, scale 0 to 100, 0 is no effect, 100 is complete control, read-out: Pigweed plant response rating) was 60% and the pest or weed control at 500 g/ha (pigweed; Amaranthus retroflexus, pre-emergence, 336 h, visual rating, 0 = no effect, 100 = complete control, read-out: Plant response rating, Pigweed) was 70%. The pest or weed control at 125 g/ha (wild oat; [5]) was 0%, the pest or weed control at 500 g/ha (wild oat; [6]) was 20% and the “Plant response rating (0 to 100 scale), Foxtail, Giant” value (giant foxtail; [4]) was 70. For the same molecule, the pest or weed control at 125 g/ha (giant foxtail; Setaria faberi, post-emergence, 336 h, 125 g ai/ha, visual rating, scale 0 (no effect) to 100 (complete control), read-out: Foxtail, Giant plant response rating) was 10%, the pest or weed control at 500 g/ha (giant foxtail; Setaria faberi, post-emergence, 336 h, postemergence, scale 0 to 100, 0 is no effect, 100 is complete control, read-out: Foxtail, Giant plant response rating) was 30% and the pest or weed control at 500 g/ha (giant foxtail; Setaria faberi, pre-emergence, 336 h, visual rating, 0 = no effect, 100 = complete control, read-out: Plant response rating, Foxtail, Giant) was 100%.
